Data reported in ChEMBL document CHEMBL3885861, “Open TG-GATES”.

Species on record: Rattus norvegicus
Experiment: Open TG-GATES - Regimen: Daily Repeat
Assay type: toxicity, organism-based, Sprague-Dawley
Set-up: regimen Daily Repeat, gender Male, age 6 weeks
Conditions: in vivo, po, route gavage; for APTT / Bas / Eos / Fbg / Hb / Ht / Lym / MCH / MCHC / MCV / Mono / Neu / Plat / RBC / Ret / WBC: tissue Blood; for KIDNEY_L / KIDNEY_R / KIDNEY_TOTAL: tissue Kidney; for ALP / ALT / AST / BUN / CRE / DBIL / GLC / IP / K / LDH / Na / PL / RALB / TBIL / TC / TG / TP / gamma-GTP: tissue Plasma
[1] = 0 mg/kg, 72 h, dose level Control, time 3 day
[2] = 0 mg/kg, […], dose level Control, time 7 day
[3] = 0 mg/kg, […], dose level Control, time 14 day
[4] = 0 mg/kg, […], dose level Control, time 28 day
[5] = 10 mg/kg, 72 h, dose level Low, time 3 day
[6] = 10 mg/kg, […], dose level Low, time 7 day
[7] = 10 mg/kg, […], dose level Low, time 14 day
[8] = 10 mg/kg, […], dose level Low, time 28 day

## CN(C)CCC=C1c2ccccc2COc2ccccc21 [DOXEPIN]
[1]
  TERMINAL_BW: 226.4 g
  APTT: 17.1 s
  Bas: 0%
  Eos: 1%
  Fbg: 281.6 mg/dL
  Hb: 13.4 g/dL
  Ht: 38.6%
  Lym: 78.6%
  MCH: 21.4 pg
  MCHC: 34.7%
  MCV: 61.7 fL
  Mono: 2.8%
  Neu: 17%
  Plat: 122.6 x10_4/uL
  RBC: 625.6 x10_4/ul
  Ret: 7.8%
  WBC: 81.7 x10_2/uL
  KIDNEY_L: 1 g
  KIDNEY_R: 1 g
  KIDNEY_TOTAL: 2 g
  ALP: 1760.6 IU/L
  ALT: 46 IU/L
  AST: 71.2 IU/L
  BUN: 15.6 mg/dL
  CRE: 0.2 mg/dL
  DBIL: 0.018 mg/dL
  GLC: 192 mg/dL
  IP: 8 mg/dL
  K: 4.3 meq/L
  LDH: 71.8 IU/L
  Na: 140.8 meq/L
  PL: 143 mg/dL
  RALB: 2.7 g/dL
  TBIL: 0.036 mg/dL
  TC: 79.6 mg/dL
  TG: 91.2 mg/dL
  TP: 5.7 g/dL
  gamma-GTP: 1.4 IU/L
[2]
  TERMINAL_BW: 255.5 g
  APTT: 15.9 s
  Bas: 0.2%
  Eos: 1%
  Fbg: 293.2 mg/dL
  Hb: 13.5 g/dL
  Ht: 38.5%
  Lym: 75.4%
  MCH: 21.1 pg
  MCHC: 35.1%
  MCV: 60 fL
  Mono: 3.6%
  Neu: 19%
  Plat: 116.5 x10_4/uL
  RBC: 641.8 x10_4/ul
  Ret: 5.2%
  WBC: 81 x10_2/uL
  KIDNEY_L: 1.1 g
  KIDNEY_R: 1.1 g
  KIDNEY_TOTAL: 2.2 g
  ALP: 1795.6 IU/L
  ALT: 46 IU/L
  AST: 74.4 IU/L
  BUN: 18.8 mg/dL
  CRE: 0.2 mg/dL
  DBIL: 0.018 mg/dL
  GLC: 186.4 mg/dL
  IP: 7 mg/dL
  K: 4.2 meq/L
  LDH: 67.2 IU/L
  Na: 141.4 meq/L
  PL: 154 mg/dL
  RALB: 2.7 g/dL
  TBIL: 0.03 mg/dL
  TC: 85 mg/dL
  TG: 112.2 mg/dL
  TP: 5.8 g/dL
  gamma-GTP: 1.6 IU/L
[3]
  TERMINAL_BW: 310.4 g
  APTT: 16.8 s
  Bas: 0%
  Eos: 0.8%
  Fbg: 280.2 mg/dL
  Hb: 14 g/dL
  Ht: 40.1%
  Lym: 77.2%
  MCH: 21.3 pg
  MCHC: 34.8%
  MCV: 61.1 fL
  Mono: 2.8%
  Neu: 18.4%
  Plat: 116.1 x10_4/uL
  RBC: 657.4 x10_4/ul
  Ret: 4.8%
  WBC: 103.9 x10_2/uL
  KIDNEY_L: 1.2 g
  KIDNEY_R: 1.2 g
  KIDNEY_TOTAL: 2.4 g
  ALP: 1467 IU/L
  ALT: 42.8 IU/L
  AST: 67.4 IU/L
  BUN: 18 mg/dL
  CRE: 0.2 mg/dL
  DBIL: 0.014 mg/dL
  GLC: 191.6 mg/dL
  IP: 7 mg/dL
  K: 4.1 meq/L
  LDH: 65.6 IU/L
  Na: 143.4 meq/L
  PL: 157 mg/dL
  RALB: 2.7 g/dL
  TBIL: 0.024 mg/dL
  TC: 77.4 mg/dL
  TG: 172.8 mg/dL
  TP: 6 g/dL
  gamma-GTP: 1 IU/L
[4]
  TERMINAL_BW: 419.8 g
  APTT: 16.6 s
  Bas: 0%
  Eos: 1.2%
  Fbg: 278.6 mg/dL
  Hb: 14.7 g/dL
  Ht: 41.9%
  Lym: 74.6%
  MCH: 20.2 pg
  MCHC: 35.3%
  MCV: 57.3 fL
  Mono: 3%
  Neu: 20.8%
  Plat: 102.4 x10_4/uL
  RBC: 731.6 x10_4/ul
  Ret: 3%
  WBC: 78.6 x10_2/uL
  KIDNEY_L: 1.4 g
  KIDNEY_R: 1.4 g
  KIDNEY_TOTAL: 2.7 g
  ALP: 1293.8 IU/L
  ALT: 43.6 IU/L
  AST: 65.4 IU/L
  BUN: 17.2 mg/dL
  CRE: 0.2 mg/dL
  DBIL: 0.024 mg/dL
  GLC: 180.8 mg/dL
  IP: 6.3 mg/dL
  K: 3.9 meq/L
  LDH: 59.6 IU/L
  Na: 143.4 meq/L
  PL: 166 mg/dL
  RALB: 2.9 g/dL
  TBIL: 0.034 mg/dL
  TC: 80.2 mg/dL
  TG: 212.2 mg/dL
  TP: 6.4 g/dL
  gamma-GTP: 1 IU/L
[5]
  TERMINAL_BW: 218 g
  APTT: 16.2 s
  Bas: 0%
  Eos: 1%
  Fbg: 283.2 mg/dL
  Hb: 13.4 g/dL
  Ht: 39.3%
  Lym: 78%
  MCH: 21.5 pg
  MCHC: 34.2%
  MCV: 62.8 fL
  Mono: 2.8%
  Neu: 18%
  Plat: 107 x10_4/uL
  RBC: 625.6 x10_4/ul
  Ret: 7.4%
  WBC: 67.2 x10_2/uL
  KIDNEY_L: 0.9 g
  KIDNEY_R: 0.9 g
  KIDNEY_TOTAL: 1.9 g
  ALP: 1531.8 IU/L
  ALT: 42.2 IU/L
  AST: 70.8 IU/L
  BUN: 15.4 mg/dL
  CRE: 0.2 mg/dL
  DBIL: 0.024 mg/dL
  GLC: 191 mg/dL
  IP: 7.7 mg/dL
  K: 4.3 meq/L
  LDH: 74.2 IU/L
  Na: 141.6 meq/L
  PL: 156.8 mg/dL
  RALB: 2.7 g/dL
  TBIL: 0.044 mg/dL
  TC: 85.8 mg/dL
  TG: 100.8 mg/dL
  TP: 5.8 g/dL
  gamma-GTP: 1.4 IU/L
[6]
  TERMINAL_BW: 254.8 g
  APTT: 16.3 s
  Bas: 0%
  Eos: 1%
  Fbg: 283.4 mg/dL
  Hb: 13.5 g/dL
  Ht: 38.8%
  Lym: 79.8%
  MCH: 21.5 pg
  MCHC: 34.8%
  MCV: 61.8 fL
  Mono: 3%
  Neu: 15.6%
  Plat: 115.8 x10_4/uL
  RBC: 627.6 x10_4/ul
  Ret: 6%
  WBC: 88.3 x10_2/uL
  KIDNEY_L: 1.1 g
  KIDNEY_R: 1.1 g
  KIDNEY_TOTAL: 2.2 g
  ALP: 1775.6 IU/L
  ALT: 51.6 IU/L
  AST: 84.2 IU/L
  BUN: 19.2 mg/dL
  CRE: 0.2 mg/dL
  DBIL: 0.024 mg/dL
  GLC: 191.2 mg/dL
  IP: 7.5 mg/dL
  K: 4.3 meq/L
  LDH: 148.2 IU/L
  Na: 142 meq/L
  PL: 156 mg/dL
  RALB: 2.6 g/dL
  TBIL: 0.04 mg/dL
  TC: 81 mg/dL
  TG: 135.2 mg/dL
  TP: 5.8 g/dL
  gamma-GTP: 1 IU/L
[7]
  TERMINAL_BW: 315.1 g
  APTT: 16.8 s
  Bas: 0%
  Eos: 1.2%
  Fbg: 296.8 mg/dL
  Hb: 14.1 g/dL
  Ht: 40.5%
  Lym: 75.4%
  MCH: 21.5 pg
  MCHC: 34.7%
  MCV: 61.8 fL
  Mono: 3%
  Neu: 20%
  Plat: 106.2 x10_4/uL
  RBC: 656.4 x10_4/ul
  Ret: 4.7%
  WBC: 76.1 x10_2/uL
  KIDNEY_L: 1.2 g
  KIDNEY_R: 1.2 g
  KIDNEY_TOTAL: 2.4 g
  ALP: 1686.4 IU/L
  ALT: 42.2 IU/L
  AST: 67.6 IU/L
  BUN: 18.4 mg/dL
  CRE: 0.2 mg/dL
  DBIL: 0.012 mg/dL
  GLC: 193.4 mg/dL
  IP: 7.4 mg/dL
  K: 4.4 meq/L
  LDH: 70.2 IU/L
  Na: 142.6 meq/L
  PL: 150.2 mg/dL
  RALB: 2.7 g/dL
  TBIL: 0.024 mg/dL
  TC: 73 mg/dL
  TP: 6 g/dL
  gamma-GTP: 1.2 IU/L
[8]
  TERMINAL_BW: 390 g
  APTT: 16.2 s
  Bas: 0%
  Eos: 1.4%
  Fbg: 283.8 mg/dL
  Hb: 14.6 g/dL
  Ht: 41.3%
  Lym: 81.4%
  MCH: 19.8 pg
  MCHC: 35.4%
  MCV: 56 fL
  Mono: 2%
  Neu: 14.6%
  Plat: 109.1 x10_4/uL
  RBC: 737.6 x10_4/ul
  Ret: 2.4%
  WBC: 71.4 x10_2/uL
  KIDNEY_L: 1.3 g
  KIDNEY_R: 1.3 g
  KIDNEY_TOTAL: 2.6 g
  ALP: 1247.4 IU/L
  ALT: 37.8 IU/L
  AST: 62 IU/L
  BUN: 16.4 mg/dL
  CRE: 0.2 mg/dL
  DBIL: 0.02 mg/dL
  GLC: 173.6 mg/dL
  IP: 5.6 mg/dL
  K: 4 meq/L
  LDH: 53 IU/L
  Na: 144 meq/L
  PL: 147.6 mg/dL
  RALB: 2.8 g/dL
  TBIL: 0.03 mg/dL
  TC: 74 mg/dL
  TG: 154.8 mg/dL
  TP: 6.3 g/dL
  gamma-GTP: 1.2 IU/L
